Data from ChEMBL document CHEMBL1135274, “Spirocyclic nonpeptide glycoprotein IIb-IIIa antagonists. Part 3: synthesis and SAR of potent and specific 2,8-diazaspiro[4.5]decanes” (Bioorg Med Chem Lett, 2002).

Experiments:
[1] = Oral bioavailability in rat (Sprague-Dawley) (dose 1 mg/kg p.o.); format: ADME, organism-based; settings: in vivo
[2] = Plasma half life was reported after a intravenous dose of 1 mg/kg in Dawley rat; format: ADME, organism-based; parameters: dose 1 mg/kg, route intravenous; settings: Sprague-Dawley
[3] = organism: Homo sapiens; test: In vitro ability to inhibit aggregation of ADP stimulated human platelets using PRP assay.; format: functional
[4] = biological target: Integrin alpha-IIb/beta-3 (Homo sapiens, UniProt P05106+P08514); test: In vitro activity to block the binding of fibrinogen to purified human fibrinogen receptor.; format: protein-complex assay
Sequence of Integrin alpha-IIb/beta-3 (P05106 27-788 limits assumed): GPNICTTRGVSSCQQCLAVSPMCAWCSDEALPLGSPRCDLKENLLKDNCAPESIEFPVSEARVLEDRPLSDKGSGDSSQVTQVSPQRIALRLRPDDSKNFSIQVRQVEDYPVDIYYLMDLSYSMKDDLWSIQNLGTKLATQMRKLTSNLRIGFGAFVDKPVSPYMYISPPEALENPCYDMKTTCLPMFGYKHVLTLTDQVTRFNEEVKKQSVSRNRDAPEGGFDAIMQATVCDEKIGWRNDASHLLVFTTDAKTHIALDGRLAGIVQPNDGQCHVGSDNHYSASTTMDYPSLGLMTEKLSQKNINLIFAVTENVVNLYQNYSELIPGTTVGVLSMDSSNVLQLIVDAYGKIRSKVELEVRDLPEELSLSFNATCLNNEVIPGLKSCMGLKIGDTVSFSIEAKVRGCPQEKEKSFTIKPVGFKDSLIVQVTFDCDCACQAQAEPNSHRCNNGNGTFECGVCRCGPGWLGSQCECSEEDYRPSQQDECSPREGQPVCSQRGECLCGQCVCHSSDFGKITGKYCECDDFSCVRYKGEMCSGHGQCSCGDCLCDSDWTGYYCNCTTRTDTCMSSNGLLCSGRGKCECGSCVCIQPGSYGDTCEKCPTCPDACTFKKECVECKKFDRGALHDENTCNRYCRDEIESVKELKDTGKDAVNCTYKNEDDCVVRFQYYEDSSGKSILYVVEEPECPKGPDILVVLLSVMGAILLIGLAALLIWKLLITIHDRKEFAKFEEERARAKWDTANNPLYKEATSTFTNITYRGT
Sequence of Integrin alpha-IIb/beta-3 (P08514 32-887 limits assumed): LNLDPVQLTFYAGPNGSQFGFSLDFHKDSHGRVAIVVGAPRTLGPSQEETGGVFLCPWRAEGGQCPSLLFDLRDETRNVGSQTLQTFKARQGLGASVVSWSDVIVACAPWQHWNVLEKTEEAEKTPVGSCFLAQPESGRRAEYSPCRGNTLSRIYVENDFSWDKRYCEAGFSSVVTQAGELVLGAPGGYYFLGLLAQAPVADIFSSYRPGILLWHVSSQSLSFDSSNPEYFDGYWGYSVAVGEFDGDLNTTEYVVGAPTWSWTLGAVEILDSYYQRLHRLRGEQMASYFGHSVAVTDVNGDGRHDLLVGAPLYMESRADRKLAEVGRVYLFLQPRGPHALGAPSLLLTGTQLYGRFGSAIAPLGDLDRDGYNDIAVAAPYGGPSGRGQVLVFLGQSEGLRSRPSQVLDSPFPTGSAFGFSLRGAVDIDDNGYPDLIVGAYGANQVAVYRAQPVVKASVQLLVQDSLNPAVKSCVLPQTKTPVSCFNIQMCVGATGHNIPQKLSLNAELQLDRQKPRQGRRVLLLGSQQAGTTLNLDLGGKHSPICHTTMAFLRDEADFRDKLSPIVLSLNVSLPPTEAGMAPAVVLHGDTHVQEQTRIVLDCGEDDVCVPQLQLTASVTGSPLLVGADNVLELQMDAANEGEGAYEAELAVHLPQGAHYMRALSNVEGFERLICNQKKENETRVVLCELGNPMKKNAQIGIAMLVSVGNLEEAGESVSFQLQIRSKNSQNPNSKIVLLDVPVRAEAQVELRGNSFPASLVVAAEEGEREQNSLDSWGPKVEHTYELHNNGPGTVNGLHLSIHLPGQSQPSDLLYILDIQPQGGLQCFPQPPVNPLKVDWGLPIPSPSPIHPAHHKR
Sequence of Integrin alpha-IIb/beta-3 (P08514 891-1039 limits assumed): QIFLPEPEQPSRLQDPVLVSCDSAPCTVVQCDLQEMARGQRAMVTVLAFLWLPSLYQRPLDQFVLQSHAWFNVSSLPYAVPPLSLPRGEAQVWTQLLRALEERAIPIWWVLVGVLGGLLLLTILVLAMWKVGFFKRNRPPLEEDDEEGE

bioavailability [1] [%] | half-life [2] [min] | IC50 [3] [µM] | IC50 [4] [nM] | Compound
10 | 58.8 | 0.26 | 4 | O=C(O)CC(=O)N1CCC(C(=O)N2CCC3(CC2)CCN(c2ccncc2)C3)CC1
 |  | 80 | > 50000 | O=C(O)CCCCC(=O)N1CCC2(CCN(c3ccncc3)CC2)C1
 |  | 1.3 | 43 | O=C(O)CCCCCC(=O)N1CCC2(CCN(c3ccncc3)CC2)C1
 |  | 3.2 | 87 | O=C(O)CCN1CCN(C(=O)N2CCC3(CC2)CCN(c2ccncc2)C3)CC1
 |  | 3.3 | 225 | CC(CC(=O)O)N1CCC(C(=O)N2CCC3(CC2)CCN(c2ccncc2)C3)CC1 (stereo unspecified)
12 | 22.8 | 0.27 | 2 | O=C(O)[C@H](CCC(=O)N1CCC2(CC1)CCN(c1ccncc1)C2)NS(=O)(=O)c1cnoc1
 |  | 74 | > 50000 | O=C(O)CCCCCNC(=O)N1CCC2(CC1)CCN(c1ccncc1)C2
 |  | 18.3 | 873 | O=C(O)COc1cccc(C(=O)N2CCC3(CC2)CCN(c2ccncc2)C3)c1
 |  | 10.6 | 11900 | O=C(O)CCCCNC(=O)N1CCC2(CC1)CCN(c1ccncc1)C2
 |  | 0.7 |  | O=C(O)CC(=O)N1CCCN(C(=O)N2CCC3(CC2)CCN(c2ccncc2)C3)CC1
 |  | 3.8 |  | O=C(O)COC1CCN(C(=O)N2CCC3(CC2)CCN(c2ccncc2)C3)CC1
 |  | 1.04 | 153 | O=C(O)COC1CCN(C(=O)N2CCC3(CCN(c4ccncc4)CC3)C2)CC1
 |  | 0.68 | 136 | O=C(O)CC(=O)N1CCN(C(=O)N2CCC3(CC2)CCN(c2ccncc2)C3)CC1
 |  | 1.18 | 25 | O=C(O)CN1CCN(C(=O)N2CCC3(CCN(c4ccncc4)CC3)C2)CC1=O
 |  | 8.34 | 238 | O=C(O)CCN1CCN(C(=O)N2CCC3(CCN(c4ccncc4)CC3)C2)CC1=O
 |  | 11.3 |  | O=C(O)COc1ccc(C(=O)N2CCC3(CC2)CCN(c2ccncc2)C3)cc1
 |  | 2.8 |  | O=C(O)COCC1CCN(C(=O)N2CCC3(CC2)CCN(c2ccncc2)C3)CC1
 |  | 4 |  | CCCCOC(=O)N[C@@H](CCC(=O)N1CCC2(CC1)CCN(c1ccncc1)C2)C(=O)O

bioavailability [1] [%] | half-life [2] [min] | IC50 [3] [µM] | IC50 [4] [nM] | Compound
 |  | 1.58 |  | O=C(O)CC(=O)N1CCC(C(=O)N2CCC3(CCN(c4ccncc4)CC3)C2)CC1
 |  | 5.9 |  | O=C(O)CC(=O)NC1CCN(C(=O)N2CCC3(CC2)CCN(c2ccncc2)C3)C1 (stereo unspecified)
 |  | 24.1 |  | O=C(O)CCC(=O)N1CCN(C(=O)N2CCC3(CC2)CCN(c2ccncc2)C3)CC1
 |  | 3.7 | 254 | O=C(O)CCN1CCCN(C(=O)N2CCC3(CC2)CCN(c2ccncc2)C3)CC1
 |  | 1.1 | 90 | O=C(O)CS(=O)(=O)N1CCC(C(=O)N2CCC3(CC2)CCN(c2ccncc2)C3)CC1
 |  | 1 |  | O=C(O)CCN1CCC(C(=O)N2CCC3(CC2)CCN(c2ccncc2)C3)CC1
 |  | 12.4 | 1200 | CN(CC(=O)O)C1CCN(C(=O)N2CCC3(CC2)CCN(c2ccncc2)C3)CC1
 |  | 1.2 | 115 | O=C(O)CC1CCN(C(=O)N2CCC3(CC2)CCN(c2ccncc2)C3)CC1
 |  | 8.9 |  | O=C(O)CN1CCN(C(=O)N2CCC3(CC2)CCN(c2ccncc2)C3)CC1
 |  | 80 | > 50000 | O=C(O)CCCNC(=O)N1CCC2(CC1)CCN(c1ccncc1)C2
 |  | 18.8 |  | O=C(O)CCCCCCC(=O)N1CCC2(CCN(c3ccncc3)CC2)C1
 |  | 0.95 |  | O=C(O)Cn1ccc2cc(C(=O)N3CCC4(CC3)CCN(c3ccncc3)C4)ccc21
 |  | 34.6 |  | O=C(O)CCNC(=O)N1CCC2(CC1)CCN(c1ccncc1)C2
 |  | 9.5 | 320 | O=C(O)CN1CCC(C(=O)N2CCC3(CC2)CCN(c2ccncc2)C3)CC1
 |  | 23.3 | 1800 | O=C(O)CCn1ccc2cc(C(=O)N3CCC4(CC3)CCN(c3ccncc3)C4)ccc21
 |  | 55 | 4200 | O=C(O)C1CCN(C(=O)N2CCC3(CC2)CCN(c2ccncc2)C3)CC1
 |  | 4.1 | 25 | O=C(N[C@@H](CCC(=O)N1CCC2(CC1)CCN(c1ccncc1)C2)C(=O)O)OCc1ccccc1
